According to patent US20250145715A1, “B7-H3 TARGETING FUSION PROTEINS AND METHODS OF USE THEREOF” (GT Biopharma, Inc., priority 2021, published 2025):

Assays:
Format in all cases: cell-based, human
[1] = test system: U266 cells; experiment: IncuCyte Zoom NK cell killing of U266; settings: bortezomib 10 nM with B7-H3-TriKE and NK cells, 48 hours
Source text: (§1) FIGS. 7A-7B illustrate the ability of peripheral blood NK cells with or without B7-H3-TriKE to kill myeloma cells in live imaging IncuCyte Zoom assays. FIG. 7A is a graph showing the effects with effector:target (E:T) ratios of 2:1 and 4:1 on MM1S cells. FIG. 7B is a graph showing the effects with effector:target (E:T) ratios of 2:1 and 4:1 on U266 cells.
as §1, with “8A-8D” for “7A-7B”, “8A is a graph showing the effects with effector:target (E:T) ratios of 2:1 and 4:1 on H929 cells. FIG. 8B” for “7A”, “8C is a graph showing the effects with effector:target (E:T) ratios of 2:1 and 4:1 on RPMI-8226 cells. FIG. 8D” for “7B”
FIGS. 9A-9D illustrate the efficacy of B7-H3-TriKE with the proteasome inhibitor bortezomib (10 nM) and the immunomodulatory drug lenalidomide (5 μM). FIG. 9A is a graph showing the effect of the combination therapy on H929 cells after 48 hours. FIG. 9B is a graph showing the effect of the combination therapy on RPMI-8226 cells after 48 hours. FIG. 9C is a graph showing the effect of the combination therapy on MM1S cells after 48 hours. […]

[2] = test system: MM1S cells; experiment: IncuCyte Zoom NK cell killing of MM1S; settings: bortezomib 10 nM or lenalidomide 5 μM with B7-H3 TriKE and NK cells, 48 hours; not statistically significant
Source text: as §1
as §1, with “8A-8D” for “7A-7B”, “8A is a graph showing the effects with effector:target (E:T) ratios of 2:1 and 4:1 on H929 cells. FIG. 8B” for “7A”, “8C is a graph showing the effects with effector:target (E:T) ratios of 2:1 and 4:1 on RPMI-8226 cells. FIG. 8D” for “7B”
(§2) FIGS. 9A-9D illustrate the efficacy of B7-H3-TriKE with the proteasome inhibitor bortezomib (10 nM) and the immunomodulatory drug lenalidomide (5 μM). FIG. 9A is a graph showing the effect of the combination therapy on H929 cells after 48 hours. FIG. 9B is a graph showing the effect of the combination therapy on RPMI-8226 cells after 48 hours. FIG. 9C is a graph showing the effect of the combination therapy on MM1S cells after 48 hours. FIG. 9D is a graph showing the effect of the combination therapy on U266 cells after 48 hours.
(§3) The ability of peripheral blood NK cells with or without B7-H3-TriKE to kill myeloma cells was compared in live imaging IncuCyte Zoom assays with escalating doses of TriKE. Maximal killing occurred with 3 nM concentration.
(§4) The efficacy of B7-H3-TriKE with the proteasome inhibitor bortezomib (10 nM) and the immunomodulatory drug lenalidomide (5 μM) was also tested. Cytotoxicity curves were compared by repeated measures ANOVA and performed in triplicate.

[3] = test system: RPMI-8226 cells; experiment: IncuCyte Zoom NK cell killing of RPMI-8226; settings: bortezomib 10 nM or lenalidomide 5 μM with B7-H3-TriKE and NK cells, 48 hours
Source text: as §1, with “8A-8D” for “7A-7B”, “8A is a graph showing the effects with effector:target (E:T) ratios of 2:1 and 4:1 on H929 cells. FIG. 8B” for “7A”, “8C is a graph showing the effects with effector:target (E:T) ratios of 2:1 and 4:1 on RPMI-8226 cells. FIG. 8D” for “7B”
as §2, §3, §4

[4] = test system: H929 cells; experiment: IncuCyte Zoom NK cell killing of H929; settings: bortezomib 10 nM or lenalidomide 5 μM with B7-H3-TriKE and NK cells, 48 hours
Source text: as §1, with “8A-8D” for “7A-7B”, “8A is a graph showing the effects with effector:target (E:T) ratios of 2:1 and 4:1 on H929 cells. FIG. 8B” for “7A”, “8C is a graph showing the effects with effector:target (E:T) ratios of 2:1 and 4:1 on RPMI-8226 cells. FIG. 8D” for “7B”
as §2, §3, §4

[5] = test system: T cells (CD56−CD3+); experiment: T cell proliferation in PBMCs, CellTrace Violet dilution; settings: 7 days, 5 nM equimolar
Description: FIGS. 2A-2H illustrates that cam1615B7-H3 TriKE induces potent, and specific, natural killer (NK) cell proliferation. Peripheral blood mononuclear cells (PBMCs) were CellTrace Violet labeled and incubated for seven days at 5 nM equimolar concentrations of rhIL-15 or cam1615B7-H3 TriKE. On day 7, the cells were harvested and stained for flow cytometric evaluation. […] FIG. 2B is a graph illustrating pooled data showing the overall proportion of NK cells that proliferated. FIG. 2C is a graph illustrating pooled data showing the proportion of NK cells that highly proliferated (measured as proliferation beyond three divisions). FIG. 2D is a graph illustrating pooled data showing NK cell counts in the cultures (N=9). FIG. 2E is a representative histogram showing T cell (CD56− CD3+) proliferation. FIG. 2F is a graph illustrating pooled data showing the overall proportion of T cells proliferated. FIG. 2G is a graph illustrating pooled data showing the proportion of T cells highly proliferated. FIG. 2H is a graph illustrating pooled data showing T cell counts in the cultures (N=9). * p<0.05, ** p<0.01, *** p<0.001.
The wild-type IL-15 moiety in the cam1615B7-H3 TriKE was designed to induce targeted delivery of a proliferative signal to NK cells. To test this, proliferation assays evaluating dilution of a CellTrace dye over a 7-day period were carried out on PBMCs treated with no treatment (NT), monomeric rhIL-15 (IL15), or the TriKE (cam1615B7-H3). At the end of the seven days, cells were harvested and proliferation was evaluated by gating on CD56+CD3− cells. […] Since IL-15 acts on both NK cells and T cells, specificity was evaluated next by gating on T cells (CD56-CD3+).
To measure the ability of the TriKE to specifically induce NK cell expansion via the IL-15 moiety, PBMCs from healthy donors were labeled with CellTrace Violet Proliferation Dye (Invitrogen, Carlsbad, CA, USA) according to kit specifications. After staining, cells were cultured with TriKEs at noted concentrations, or equimolar concentrations of controls, and incubated in a humidified atmosphere containing 5% CO2 at 37° C. for seven days. Cells were harvested, stained for viability with Live/Dead reagent (Invitrogen, Carlsbad, CA, USA) and surface stained for anti-CD56 PE/Cy7 (Biolegend, San Diego, CA, USA) and anti-CD3 PE-CF594 (BD Biosciences, Franklin Lakes, NJ, USA) to gate on the viable CD56+ CD3− NK cell population or the CD56-CD3+ T cell population. Data analysis was performed using FlowJo software (FlowJo LCC, version 7.6.5, Ashland, OR, USA).

[6] = test system: OVCAR8 ovarian cancer cells; experiment: NK cell CD107a / IFNγ flow cytometry against OVCAR8; settings: individual components with PBMCs and OVCAR8
Description: FIG. 29A is a graph illustrating pooled proportion of NK cells from healthy donors expressing CD107a+ (degranulation) against OVCAR8 and MA148 targets. FIG. 29B is a graph illustrating pooled proportion of NK cells from healthy donors expressing IFNγ cytokine production against OVCAR8 and MA148 targets.
Healthy donor or ovarian cancer PBMC cells were incubated with ovarian tumor targets at 2:1 E:T ratio for 4 hrs with 30 nM TriKE or control condition. FIG. 30A is a graph illustrating pooled proportion of NK cells from healthy donors expressing CD107a+ (degranulation) against OVCAR8 targets (N=8). FIG. 30B is a graph illustrating pooled proportion of NK cells from healthy donors expressing IFNγ cytokine production against OVCAR8 targets (N=8). FIG. 30C is a graph illustrating pooled proportion of NK cells from healthy donors expressing CD107a+ (degranulation) against OVCAR3 targets (N=4). FIG. 30D is a graph illustrating pooled proportion of NK cells from healthy donors expressing IFNγ cytokine production against OVCAR3 targets (N=4). FIG. 30E is a graph illustrating pooled proportion of NK cells from healthy donors expressing CD107a+ (degranulation) against OVCAR5 targets (N=7). FIG. 30F is a graph illustrating pooled proportion of NK cells from healthy donors expressing IFNγ cytokine production against OVCAR5 targets (N=7). […] FIG. 30I is a graph illustrating that tumor killing was evaluated using IncuCyte imaging assay. […] The percentage of Live (Nuclight Red+Caspase 3/7−) tumor cells was quantified over a 48-h period and normalized to tumor alone. Readings were obtained every 15 min (representative of four separate experiments). * p<0.05, ** p<0.01, *** p<0.001, and **** p<0.0001.
ADCC was measured in a flow cytometry assay by evaluating degranulation via CD107a (lysosomal-associated membrane protein LAMP-1) and intracellular IFNγ production. […] Samples were washed and evaluated in an LSRII flow cytometer (BD Biosciences, San Jose, CA, USA).
The ability of cam1615B7-H3 TriKE to mediate NK cell activity against ovarian cancer cells was evaluated. […]

| Compound | killing of U266 in combination therapy [1] | killing of MM1S in combination therapy [2] | killing of RPMI-8226 in combination therapy [3] | killing of H929 in combination therapy [4] | overall T cell proliferation [5] | NK cell activity against OVCAR8 by individual components [6] |
| --- | --- | --- | --- | --- | --- | --- |
| CC(C)C[C@H](NC(=O)[C@H](Cc1ccccc1)NC(=O)c1cnccn1)B(O)O [bortezomib, reference compound] | enhanced killing | trend toward improved killing | synergistic killing | did not further enhance killing | – | – |
| Nc1cccc2c1CN(C1CCC(=O)NC1=O)C2=O (stereo not drawn) [lenalidomide] | – | trend toward improved killing | synergistic killing | synergistic killing | – | – |
| rhIL-15: monomeric recombinant human IL-15 control [reference compound] | – | – | – | – | robust proliferation of T cells | do not enhance NK cell activity |
